# Results as given in PMC10060569 (Frontiers in Pharmacology, 2023).
# pIC50: −log10 of the molar value. Where “and” joins values, the source holds several entries; their conditions need not be identical. Equal entries are not always repeated.
# Tests used:
# S15V-hP2X3R = molecular target: T1, S15V-hP2X3R (Homo sapiens, UniProt P56373, S15V); experiment: TEVC of ATP-induced currents, S15V-hP2X3R expressed in X. laevis oocytes (peak current protocol); assay type: cell-based; details: for pIC50 / inhibition at 1000 µM: 1 µM ATP; for pIC50: 30-s preincubation of antagonist, X. laevis oocytes, −60 mV, geometric mean; for inhibition at 1000 µM: 1 mM antagonist, mean ± SEM, read-out: Max. inhibition at 1 mM; for reversibility of the inhibitory effect by washout: subsequent control current after washout
# T1 construct: expressed in transfected cells; host or cells: Xenopus laevis oocytes (cRNA injection)
# T1 sequence (P56373 1-397 S15V): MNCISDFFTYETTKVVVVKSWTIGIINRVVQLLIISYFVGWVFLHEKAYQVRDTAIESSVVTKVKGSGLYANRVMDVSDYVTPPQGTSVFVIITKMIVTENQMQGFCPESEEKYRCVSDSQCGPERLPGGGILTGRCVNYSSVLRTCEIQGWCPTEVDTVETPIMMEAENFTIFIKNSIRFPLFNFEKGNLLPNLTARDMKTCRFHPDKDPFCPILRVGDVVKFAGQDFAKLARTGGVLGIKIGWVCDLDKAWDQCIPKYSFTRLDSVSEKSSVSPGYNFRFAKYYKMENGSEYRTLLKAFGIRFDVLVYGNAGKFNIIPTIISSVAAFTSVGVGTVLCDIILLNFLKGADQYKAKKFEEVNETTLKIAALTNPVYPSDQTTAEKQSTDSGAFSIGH
# Description: Oocyte expression plasmids encoding the wild-type (wt) and N-terminally His-tagged (His-) fusion constructs of the hP2X2R, hP2X3R, hP2X4R, and hP2X7R, and the mutant His-^20RMVL^23KVIV^23S^26N-hP2X1R, S^15V-rP2X3R, and His-S^15V-hP2X3R were the same as used in previous research ([Hausmann et al., 2006]; [Wolf et al., 2011]; [Hausmann et al., 2014]; [Obrecht et al., 2019]). In most cases, the N-terminal His-tagged variants of P2XRs were used here and in the previous studies to allow biochemical analyses on affinity-purified proteins using the same constructs. Although this was not required for the present study, it allows for better comparability with our previous studies. Capped cRNAs of different P2XRs were already available in the research group or were synthesized as previously described ([Schmalzing et al., 1991]; [Stolz et al., 2015]). cRNA was injected into collagenase-defolliculated X. laevis oocytes in aliquots of 41 nl or 23 nl (see Supplementary Table S1 for the amount of cRNA used for expression of the indicated P2XR) using a Nanoliter 2000 injector (World Precision Instruments, Sarasota, United States of America) as described previously ([Hausmann et al., 2014]; [Stolz et al., 2015]; [Obrecht et al., 2019]). To express the heteromeric hP2X2/3 receptor, cRNAs encoding His-hP2X2R and wt-hP2X3R were coinjected at a ratio (w/w) of 1:6. Oocytes were stored at 19°C in an oocyte ringer solution (ORi^+) containing 90 mM NaCl, 1 mM KCl, 1 mM CaCl2, 1 mM MgCl2, and 10 mM HEPES (Carl Roth, Karlsruhe, Germany) adjusted to pH 7.4 with NaOH and supplemented with 50 μg/ml gentamicin (AppliChem, Darmstadt, Germany). The procedures followed for the maintenance of and the surgical treatment for X. laevis adults were approved by the governmental animal care and use committee of the State Agency for Nature, Environment, and Consumer Protection (LANUV, Recklinghausen, Germany; reference no. 81-02.04.2019. A355), in compliance with Directive 2010/63/EU of the European Parliament and of the Council on the protection of animals used for scientific purpose.
# Ion currents mediated by P2X receptors were evoked by the indicated concentration of ATP or α,β-meATP and were recorded 1 or 2 days after cRNA injection at ambient temperature at a holding potential of −60 mV by two-electrode voltage clamp (TEVC) as previously described ([Hausmann et al., 2006]). Calcium-free ORi^− solution (90 mM NaCl, 1 mM KCl, 2 mM MgCl2, 10 mM HEPES, pH 7.4) was used to avoid bias due to calcium-activated chloride channels (CaCC) endogenously expressed in X. laevis oocytes ([Miledi, 1982]; [Methfessel et al., 1986]). For recordings of wt-hP2X7R, the composition of the ORi^− solution was modified according to protocols described previously and contained 100 mM NaCl, 2.5 mM KCl, 1 mM MgCl2, 5 mM HEPES, pH 7.4 ([Klapperstück et al., 2000]). The oocytes were continuously superfused with ORi^− by gravity flow (5–10 ml/min). The agonists ATP or α,β-meATP and the investigated NSAIDs were diluted in ORi^− on the day of the recording. […] A peak current protocol (Supplementary Figure S1) was used to analyze fast- and intermediate desensitizing P2XR subtypes (P2X1R, P2X3R, and S^15V-P2X3R), and a steady-state protocol (Supplementary Figure S2) was used for slowly or partially desensitizing P2X subtypes (P2X2R, P2X2/3R, and P2X4R). For recordings of P2X7R, a modified steady-state protocol was used ([Hausmann et al., 2006]). The application of different bath solutions was controlled by computer-operated magnetic valves controlled by the CellWorks E 5.5.1 software (npi electronic, Tamm, Germany).
# Antagonist concentration–response data and IC50 values were calculated by normalizing ATP-induced responses to the control responses (recorded in the presence and absence of the antagonist, respectively). […]
# [1] = cited from earlier work
SMILES,pIC50 (S15V-hP2X3R),inhibition at 1000 µM (S15V-hP2X3R),reduction of current amplitude in the presence of 3–10 µM diclofenac (S15V-hP2X3R; 3–10 µM diclofenac),"inhibition at 3 µM (S15V-hP2X3R; read-out: % inhibition of 10 µM ATP-induced currents by 3 µM diclofenac, 3 µM diclofenac, 10 µM ATP, ± SEM)","inhibition at 30 µM (S15V-hP2X3R; read-out: % inhibition of 10 µM ATP-induced currents by 30 µM diclofenac, 30 µM diclofenac, 10 µM ATP, ± SEM)",reversibility of the inhibitory effect by washout (S15V-hP2X3R),"plasma levels, intramuscular injection ([1]; injected intramuscularly, ref Drago et al., 2017)","maximum plasma levels, oral ([1]; oral application of 50–75 mg diclofenac, ref Kurowski et al., 1994, Kienzler et al., 2010)","plasma levels, transdermal application ([1]; transdermal application, ref Efe et al., 2014)","plasma levels, transdermal, repetitive application ([1]; applied transdermally, even with repetitive application, ref Drago et al., 2017)"
"O=C(O)Cc1ccccc1Nc1c(Cl)cccc1Cl [Diclofenac, diclofenac]",3.86,~80%,20%–30%,-1.6%,24%,not reversible,approximately 1.8 μg/ml and ~6 μM,2.3–2.6 μg/ml and 7–8 μM,low nanomolar,
"O=C(O)c1ccccc1Nc1cccc(C(F)(F)F)c1 [Flufenamic acid, flufenamic acid]",3.66 and 3.65,69.8%,,,,not reversible,,,,≤ 180 nM
